“And” between values parts separate entries of the source, which are not always exact repeats. Identical values can stand only once. Like-named read-outs stand apart in the source and are kept apart here.
How the values were obtained:
Type in all cases: in vivo
Phytophthora infestans = conditions: Tomato late blight, 5 days after inoculation
[1] = system: Psecidoperonospora cubensis; assay: Effect on Cucumber downy mildew (preventive spray test); conditions: 7 days after inoculation
Pyricularia oryzae = conditions: Rice blast, 7 days after inoculation
Erysiphe graminis = assay: Effects on Barley powdery mildew (preventive spray test); conditions: lesions counted seven days after inoculation
Puccinia recondita = assay: Effect on Wheat brown rust (preventive spray test); conditions: 7 days after inoculation
Chochliobolus miyabeanus = assay: Effect on Rice brown spot (preventive spray test); conditions: 7 days after inoculation
[2] = conc. of active ingredient 20 ppm
[3] = conc. of active ingredient 100 ppm
[4] = conc. of active ingredient 4 ppm

| SMILES | Preventive rate (%) (Phytophthora infestans; [2]) | Preventive rate (%) (Phytophthora infestans; [3]) | Preventive rate (%) [1, 3] | Preventive rate (%) (Pyricularia oryzae; [4]) | Preventive rate (%) (Pyricularia oryzae; [2]) | Preventive rate (%) (Pyricularia oryzae; [3]) | Preventive rate (%) (Erysiphe graminis; [4]) | Preventive rate (%) (Erysiphe graminis; [2]) | Preventive rate (%) (Erysiphe graminis; [3]) | Preventive rate (%) (Puccinia recondita; [4]) | Preventive rate (%) (Puccinia recondita; [2]) | Preventive rate (%) (Puccinia recondita; [3]) | Preventive rate (%) [1, 4] | Preventive rate (%) [1, 2] | Preventive rate (%) (Phytophthora infestans; [4]) | Preventive rate (%) (Chochliobolus miyabeanus; [2]) | Preventive rate (%) (Chochliobolus miyabeanus; [3]) | Preventive rate (%) (Chochliobolus miyabeanus; [4]) |
| --- | --- | --- | --- | --- | --- | --- | --- | --- | --- | --- | --- | --- | --- | --- | --- | --- | --- | --- |
| CON=C(C(=O)OC)c1ccccc1COc1cc2c(cc1C)C(=NOC)C(C)C2 (single isomer, unassigned) [f-10] | 97% | 98% | 100% | 85% | 85% | 90% |  |  |  |  |  |  |  |  |  |  |  |  |
| C=C(Cl)CON=C1COc2c1ccc(OCc1ccccc1/C(=N\OC)C(=O)NC)c2C [a-64] | 84% | 100% | 100% |  |  |  | 94% | 98% | 100% | 100% | 100% | 100% | 100% | 100% |  |  |  |  |
| CO/C=C(/C(=O)OC)c1ccccc1COc1ccc2c(c1)OCCC2=NOC [c-2] | 98% | 98% | 100% |  |  |  |  | 100% | 100% | 93% | 100% | 100% |  | 97% | 84% |  |  |  |
| CON=C1c2ccc(OCc3ccccc3/C(=N\OC)C(=O)OC)c(C)c2OC1C (stereo not drawn) [b-6] | 92% | 94% | 100% |  | 84% | 88% |  | 89% | 90% |  |  |  |  | 100% |  | 70% | 90% |  |
| CO/C=C(/C(=O)OC)c1ccccc1COc1ccc2c(c1C)OC(C)C2=NOC (single isomer, unassigned) [b-4] | 97% | 97% |  |  | 89% | 95% | 98% | 100% | 100% | 100% | 100% | 100% |  |  |  |  |  |  |
| CO/C=C(/C(=O)OC)c1ccccc1COc1ccc2c(c1C)OC(C)C2=NOC (single isomer, unassigned) [b-5] | 91% | 97% |  |  | 84% | 95% | 98% | 98% | 100% | 100% | 100% | 100% |  |  |  |  |  |  |
| CNC(=O)C(=NOC)c1ccccc1COc1ccc2c(c1C)CC(C)C2=NOC (racemic) [f-4] |  |  | 100% |  |  |  |  |  |  |  |  |  | 100% | 100% |  | 70% | 90% | 68% |
| C=CCON=C1COc2c1ccc(OCc1ccccc1/C(=N\OC)C(=O)NC)c2C [a-60] | 97% | 97% | 100% |  | 86% | 91% |  | 100% | 100% | 100% | 100% | 100% | 100% | 100% |  |  |  |  |
| COC=C(C(=O)OC)c1ccccc1COc1ccc2c(c1)CCC2=NO [e-1] |  |  |  |  |  |  |  |  |  |  |  |  |  |  |  |  |  | 87% |
| C=C(Cl)CON=C1CCOc2c1ccc(OCc1ccccc1C(=NOC)C(=O)NC)c2C [c-64] |  |  |  |  | 80% | 98% |  | 96% | 100% | 99% | 99% | 100% |  |  |  |  |  |  |
| C#CCON=C1CCc2c1ccc(OCc1ccccc1C(=NOC)C(=O)NC)c2C [e-61] | 98% | 100% | 100% |  |  |  |  | 98% |  | 100% | 100% | 100% | 100% | 100% |  | 90% | 90% | 84% |
| CNC(=O)C(=NOC)c1ccccc1COc1ccc2c(c1)CCC2=NOCC=CCl [e-58] | 92% and 98% | 100% | 100% |  |  |  |  | 100% | 100% |  | 100% | 100% | 100% | 100% |  |  |  |  |
| CON=C1CCc2cc(OCc3ccccc3C(=NOC)C(=O)OC)c(C)cc21 [e-26] | 97% | 100% | 100% |  |  |  |  | 100% | 100% |  | 98% | 98% | 75% | 100% |  | 71% | 91% |  |
| COC=C(C(=O)OC)c1ccccc1COc1ccc2c(c1C)OC(C)CC2=NOC (racemic) [d-8] |  |  |  | 77% | 83% | 100% | 100% | 100% | 100% | 100% | 100% | 100% |  |  |  |  |  |  |
| CCON=C1COc2c1ccc(OCc1ccccc1/C(=N\OC)C(=O)NC)c2C [a-36] | 91% | 98% | 100% |  | 90% | 99% |  |  |  | 100% | 100% | 100% |  | 100% |  | 93% | 96% | 69% |
| CNC(=O)C(=NOC)c1ccccc1COc1cc2c(cc1C)C(=NOC)C(C)C2 (single isomer, unassigned) [f-11] | 100% | 100% | 100% | 72% | 83% | 100% | 100% | 100% | 100% | 100% | 100% | 100% | 100% | 100% | 100% |  |  |  |
| CON=C(C(=O)OC)c1ccccc1COc1ccc2c(c1C)OC(C)(C)CC2=NOC [d-6] |  |  |  | 71% | 77% | 92% |  |  |  |  | 92% | 99% |  |  |  |  |  |  |
| CCCCON=C1CCOc2c1ccc(OCc1ccccc1C(=NOC)C(=O)NC)c2C [c-58] |  | 100% |  |  |  |  |  | 98% | 100% | 98% | 100% | 100% |  |  |  |  |  |  |

Source: US6399542B1, “Alkoxyimino-substituted bicyclic compounds compositions containing the same and method of making such compounds” (Agro-Kanesho Co., Ltd., priority 1997, dated 2002)
